What follows are molecules tested against Transient receptor potential cation channel subfamily V member 4 (Homo sapiens, UniProt Q9HBA0) (assay: Inhibition Assay: Test Example 1: (1) The TRPV4 inhibitory activity was measured using CHO-K1 cells stably expressing human TRPV4 (hTRPV4/CHO cells). (2) In the day before the experimental day, frozen cell were thawed and washed with the culture medium (MEM-α, 10% FBS, 2 mmol/L GlutaMax, 50 unit Penicillin, 50 μg/mL Streptomycin). Then cells were suspended in the culture medium. (3) The 384-well plates which hTRPV4/CHO cells were seeded at densities of 4000 cells/well in the culture medium and cultured in a CO2 incubator in the presence of 5% CO2 at 37° C. for overnight was used as assay plates. (4) The assay plate was washed with assay buffer (Hanks, 20 mmol/L HEPES, 2.5 mmol/L probenecid, pH7.4), and the buffer were remained at 20 μL/well. (5) 10 μl of dye loading buffer (9 μmol/L Fluo 4-AM, 0.09% Pluronic F-127/assay buffer) was added to each well, then the assay plate was incubated in a CO2 incubator in the presence of 5% CO2 at 37° C. for one hour. (final 3 μmol/L Fluo4-AM). (6) The assay plate was washed with the assay buffer, and the buffers were remained at 20 μL/well. Then the assay plate was incubated for 10 min at room temperature. (7) Diluted compound solution was dispensed to each well in the compound plate, and mixed with built-in Pipette and Mixer of the Fluorescence analysis system FLIPR TETRA (Molecular devices). (8) After incubation for 5 min, 20 μL of 4α-PDD solution were applied to each well of assay plate and mixed with the FLIPR TETRA. (final 1 Î¼mol/L 4α-PDD). (9) The fluorescent intensity was measured with FLIPR TETRA system for 10 min from the point of time addition the compound solution, at Ex 470-495 nm, Em 515-575 nm wavelength.).
Assay type: cell-based

Chain of Transient receptor potential cation channel subfamily V member 4 (Q9HBA0 whole entry): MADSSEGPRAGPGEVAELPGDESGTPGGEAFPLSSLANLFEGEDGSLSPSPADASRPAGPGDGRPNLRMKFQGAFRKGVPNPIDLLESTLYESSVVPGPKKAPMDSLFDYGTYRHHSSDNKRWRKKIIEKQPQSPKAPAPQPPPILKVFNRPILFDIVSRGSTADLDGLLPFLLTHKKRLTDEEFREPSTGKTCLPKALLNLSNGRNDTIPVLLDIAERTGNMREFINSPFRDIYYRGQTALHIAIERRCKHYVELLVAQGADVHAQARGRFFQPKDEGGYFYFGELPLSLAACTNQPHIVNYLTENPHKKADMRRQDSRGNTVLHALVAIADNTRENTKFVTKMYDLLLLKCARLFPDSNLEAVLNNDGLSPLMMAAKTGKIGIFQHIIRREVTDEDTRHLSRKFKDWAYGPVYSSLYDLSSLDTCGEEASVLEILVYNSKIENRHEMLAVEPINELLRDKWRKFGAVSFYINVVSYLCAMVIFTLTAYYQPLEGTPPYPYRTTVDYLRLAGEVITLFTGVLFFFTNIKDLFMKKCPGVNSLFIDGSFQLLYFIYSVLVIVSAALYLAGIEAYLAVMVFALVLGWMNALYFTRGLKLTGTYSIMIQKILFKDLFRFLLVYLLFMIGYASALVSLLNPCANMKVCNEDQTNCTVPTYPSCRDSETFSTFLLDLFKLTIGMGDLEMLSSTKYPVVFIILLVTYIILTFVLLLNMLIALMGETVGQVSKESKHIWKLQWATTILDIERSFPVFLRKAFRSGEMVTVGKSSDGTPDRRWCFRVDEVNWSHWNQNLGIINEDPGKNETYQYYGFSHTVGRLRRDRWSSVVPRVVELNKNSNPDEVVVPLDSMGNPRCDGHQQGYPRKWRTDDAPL

Row | Compound | IC50 | Ki
1 | Cc1c(C(=O)Nc2cccc(C(F)(F)F)c2)nc(-c2ccccc2)n1CCCN1CCOCC1 | 0.71 µM | 0.32 µM
2 | CNCCCn1c(C(C)(C)C)cc(S(=O)(=O)NCc2cccc(C(F)(F)F)c2)c1C | 7 µM | 2.4 µM
3 | Cc1c(S(=O)(=O)NCc2cccc(C(F)(F)F)c2)cc(C(C)(C)C)n1CCCN1CCNCC1 | 8.9 µM | 3.1 µM
